This passage reports remaining activity results from paper PMC9719519, “Non-classical ferroptosis inhibition by a small molecule targeting PHB2” (Nature Communications, 2022).

Holding throughout (assay): biochemical
Set-up in all cases: Eurofins recombinant human kinase profiling, remaining kinase activity as % of control, 10 uM ATP
Common to all, as to details: ATP 10 uM; read-out: %Ctrl@10 μM

The target in one test is WNK2(h) (Homo sapiens, UniProt Q9Y3S1). Put shortly: (§1)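 Recombinant human kinases, 401 in total, screened using an outsourced kinase profiling assay.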
Another test deals with T1, CaMKIδ(h) (Homo sapiens, UniProt Q8IU85).
T1 construct: gene CAMK1D
Put shortly: as §1

The next test concerns the target T2, B-Raf(h) (Homo sapiens, UniProt P15056).
T2 construct: gene BRAF
Put shortly:
as §1

A further test addresses T3, PKD2(h) (Homo sapiens, UniProt Q9BZL6).
T3 construct: gene PRKD2
Put shortly: as §1

A further test addresses T4, Rse(h) (Homo sapiens, UniProt Q06418).
T4 construct: gene TYRO3
Put shortly:
as §1

The target of another test is T5, Yes(h) (Homo sapiens, UniProt P07947).
T5 construct: gene YES1
Put shortly: as §1

The next test deals with T6, Aurora-C(h) (Homo sapiens, UniProt Q9UQB9).
T6 construct: gene AURKC
Put shortly: as §1

The target of the next test is T7, ROCK-I(h) (Homo sapiens, UniProt Q13464).
T7 construct: gene ROCK1
Put shortly:
as §1

A further test has as its target MOK(h) (Homo sapiens, UniProt Q9UQ07). Put shortly:
as §1

The next test has as its target T8, CRIK(h) (Homo sapiens, UniProt O14578).
T8 construct: gene CIT
Put shortly: as §1

For another test, the target named is TLK1(h) (Homo sapiens, UniProt Q9UKI8). Put shortly:
as §1

For a further test, the target named is ULK3(h) (Homo sapiens, UniProt Q6PHR2). Put shortly:
as §1

Another test concerns the target T9, IGF-1R(h) (Homo sapiens, UniProt P08069).
T9 construct: gene IGF1R
Put shortly: as §1

In a further test the target is T10, CaMKIIα(h) (Homo sapiens, UniProt Q9UQM7).
T10 construct: gene CAMK2A
Put shortly: as §1

The next test has as its target T11, LOK(h) (Homo sapiens, UniProt O94804).
T11 construct: gene STK10
Put shortly: as §1

Another test deals with T12, PI3 Kinase (p120)(h) (Homo sapiens, UniProt P48736).
T12 construct: gene PIK3CG
Put shortly:
as §1

For the next test, the target named is WNK1(h) (Homo sapiens, UniProt Q9H4A3). Put shortly: as §1
The target in another test is T13, IR(h) (Homo sapiens, UniProt P06213).
T13 construct: gene INSR
Put shortly:
as §1

A further test concerns the target MARK3(h) (Homo sapiens, UniProt P27448). Put shortly: as §1
The next test addresses Ret (V804L)(h) (Homo sapiens, UniProt P07949, V804L). Put shortly:
as §1

For a further test, the target named is CDK13/cyclinK(h) (Homo sapiens, UniProt Q14004). Put shortly: as §1
For a further test, the target named is T14, Abl (H396P) (h) (Homo sapiens, UniProt P00519, H396P).
T14 construct: gene ABL1
Put shortly:
as §1

Structures are written as SMILES.

TLK1(h), sequence (Q9UKI8 whole entry): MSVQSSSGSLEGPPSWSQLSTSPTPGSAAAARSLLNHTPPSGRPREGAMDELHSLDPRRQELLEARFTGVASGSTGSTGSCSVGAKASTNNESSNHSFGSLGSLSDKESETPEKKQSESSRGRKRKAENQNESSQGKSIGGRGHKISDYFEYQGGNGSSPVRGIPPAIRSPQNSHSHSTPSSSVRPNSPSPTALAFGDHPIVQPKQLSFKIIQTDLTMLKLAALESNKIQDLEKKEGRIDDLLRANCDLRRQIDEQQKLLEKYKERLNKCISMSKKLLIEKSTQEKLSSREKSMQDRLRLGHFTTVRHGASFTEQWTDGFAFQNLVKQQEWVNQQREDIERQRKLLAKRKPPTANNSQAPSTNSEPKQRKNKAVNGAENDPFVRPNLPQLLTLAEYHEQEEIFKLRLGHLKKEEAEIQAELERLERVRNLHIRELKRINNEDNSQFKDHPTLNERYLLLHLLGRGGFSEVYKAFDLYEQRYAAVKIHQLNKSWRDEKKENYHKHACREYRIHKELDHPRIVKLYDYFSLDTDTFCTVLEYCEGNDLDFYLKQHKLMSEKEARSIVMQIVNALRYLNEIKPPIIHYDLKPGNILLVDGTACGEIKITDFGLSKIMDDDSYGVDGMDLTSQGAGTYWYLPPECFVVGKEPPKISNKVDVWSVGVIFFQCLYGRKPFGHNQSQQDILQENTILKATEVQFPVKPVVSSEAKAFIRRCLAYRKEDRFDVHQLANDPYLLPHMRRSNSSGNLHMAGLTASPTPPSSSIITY
T5 sequence (P07947 whole entry): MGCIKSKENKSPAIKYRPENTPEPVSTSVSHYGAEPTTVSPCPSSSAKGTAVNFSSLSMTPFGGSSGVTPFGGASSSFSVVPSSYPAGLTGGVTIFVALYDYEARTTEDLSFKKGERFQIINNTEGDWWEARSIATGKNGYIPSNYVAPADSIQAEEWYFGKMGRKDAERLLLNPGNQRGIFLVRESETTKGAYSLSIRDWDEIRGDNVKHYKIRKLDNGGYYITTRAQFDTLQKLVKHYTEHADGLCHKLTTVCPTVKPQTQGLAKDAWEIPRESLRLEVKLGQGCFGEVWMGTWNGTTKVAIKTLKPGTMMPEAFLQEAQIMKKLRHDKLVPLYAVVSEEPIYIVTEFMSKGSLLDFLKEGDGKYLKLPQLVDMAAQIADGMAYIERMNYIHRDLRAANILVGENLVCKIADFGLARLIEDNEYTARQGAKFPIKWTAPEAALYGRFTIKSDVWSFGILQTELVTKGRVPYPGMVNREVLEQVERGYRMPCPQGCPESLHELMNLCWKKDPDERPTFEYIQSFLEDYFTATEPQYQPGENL
T10 sequence (Q9UQM7 whole entry): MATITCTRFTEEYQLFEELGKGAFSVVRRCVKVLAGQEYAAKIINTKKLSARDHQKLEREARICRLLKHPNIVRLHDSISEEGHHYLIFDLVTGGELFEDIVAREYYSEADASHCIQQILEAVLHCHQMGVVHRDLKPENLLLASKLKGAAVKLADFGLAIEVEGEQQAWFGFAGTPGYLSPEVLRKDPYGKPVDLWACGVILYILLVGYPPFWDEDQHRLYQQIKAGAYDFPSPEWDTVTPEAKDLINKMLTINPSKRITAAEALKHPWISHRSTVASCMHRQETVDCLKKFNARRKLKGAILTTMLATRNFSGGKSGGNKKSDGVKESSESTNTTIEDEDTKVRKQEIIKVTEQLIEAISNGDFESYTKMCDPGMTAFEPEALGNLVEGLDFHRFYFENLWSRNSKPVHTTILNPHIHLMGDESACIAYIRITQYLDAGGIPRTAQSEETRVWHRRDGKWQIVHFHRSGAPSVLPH
T8 sequence (O14578 whole entry): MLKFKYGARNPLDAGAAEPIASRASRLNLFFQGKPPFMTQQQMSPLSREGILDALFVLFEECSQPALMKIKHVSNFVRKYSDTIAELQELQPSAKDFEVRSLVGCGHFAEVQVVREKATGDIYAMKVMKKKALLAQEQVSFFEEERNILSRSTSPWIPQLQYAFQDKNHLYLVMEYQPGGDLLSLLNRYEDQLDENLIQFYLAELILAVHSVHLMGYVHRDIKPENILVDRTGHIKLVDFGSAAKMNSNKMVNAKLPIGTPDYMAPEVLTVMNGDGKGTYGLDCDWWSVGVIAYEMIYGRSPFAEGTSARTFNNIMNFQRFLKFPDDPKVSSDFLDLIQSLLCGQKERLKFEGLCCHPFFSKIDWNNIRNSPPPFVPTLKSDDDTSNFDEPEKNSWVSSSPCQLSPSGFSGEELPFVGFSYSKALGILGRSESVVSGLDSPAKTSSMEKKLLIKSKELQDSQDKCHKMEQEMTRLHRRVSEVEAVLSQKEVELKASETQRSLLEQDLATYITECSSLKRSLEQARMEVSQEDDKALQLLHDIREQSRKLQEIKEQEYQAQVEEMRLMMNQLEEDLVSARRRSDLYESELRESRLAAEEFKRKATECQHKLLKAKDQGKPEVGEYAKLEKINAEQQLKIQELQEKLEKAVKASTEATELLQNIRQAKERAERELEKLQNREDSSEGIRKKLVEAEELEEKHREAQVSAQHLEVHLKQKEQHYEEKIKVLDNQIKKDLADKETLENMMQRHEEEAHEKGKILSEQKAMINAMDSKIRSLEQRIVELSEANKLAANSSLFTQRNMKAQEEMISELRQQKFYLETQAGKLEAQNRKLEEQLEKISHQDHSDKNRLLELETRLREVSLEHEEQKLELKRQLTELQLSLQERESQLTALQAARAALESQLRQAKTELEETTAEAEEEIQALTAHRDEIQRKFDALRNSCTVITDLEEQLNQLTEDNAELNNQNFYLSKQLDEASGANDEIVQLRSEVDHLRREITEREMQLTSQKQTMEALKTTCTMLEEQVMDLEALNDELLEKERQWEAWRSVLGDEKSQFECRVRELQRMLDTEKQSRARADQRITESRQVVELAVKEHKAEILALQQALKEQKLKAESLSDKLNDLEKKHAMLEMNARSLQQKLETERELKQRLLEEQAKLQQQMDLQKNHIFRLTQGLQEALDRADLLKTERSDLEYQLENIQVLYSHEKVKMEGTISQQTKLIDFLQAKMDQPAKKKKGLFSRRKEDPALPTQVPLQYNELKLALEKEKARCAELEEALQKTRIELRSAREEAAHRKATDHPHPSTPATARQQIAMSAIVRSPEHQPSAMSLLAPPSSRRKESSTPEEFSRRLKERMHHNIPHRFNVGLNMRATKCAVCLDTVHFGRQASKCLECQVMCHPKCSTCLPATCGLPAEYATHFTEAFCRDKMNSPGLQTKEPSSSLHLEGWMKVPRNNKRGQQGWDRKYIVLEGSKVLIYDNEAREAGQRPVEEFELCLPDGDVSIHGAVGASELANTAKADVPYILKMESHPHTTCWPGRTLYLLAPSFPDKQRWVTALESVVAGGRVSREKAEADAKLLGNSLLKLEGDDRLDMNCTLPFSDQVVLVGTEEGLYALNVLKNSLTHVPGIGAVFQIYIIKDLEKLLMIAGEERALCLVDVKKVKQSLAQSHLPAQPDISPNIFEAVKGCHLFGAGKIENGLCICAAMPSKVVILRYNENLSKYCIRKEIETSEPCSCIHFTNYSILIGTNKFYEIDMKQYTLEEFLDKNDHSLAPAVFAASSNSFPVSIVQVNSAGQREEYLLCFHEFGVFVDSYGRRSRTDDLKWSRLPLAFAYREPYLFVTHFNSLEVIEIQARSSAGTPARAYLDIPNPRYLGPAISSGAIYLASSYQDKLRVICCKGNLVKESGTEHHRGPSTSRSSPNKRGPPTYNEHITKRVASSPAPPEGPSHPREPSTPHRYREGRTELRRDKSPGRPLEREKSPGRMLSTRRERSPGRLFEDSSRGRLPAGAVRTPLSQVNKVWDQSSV
T4 sequence (Q06418 whole entry): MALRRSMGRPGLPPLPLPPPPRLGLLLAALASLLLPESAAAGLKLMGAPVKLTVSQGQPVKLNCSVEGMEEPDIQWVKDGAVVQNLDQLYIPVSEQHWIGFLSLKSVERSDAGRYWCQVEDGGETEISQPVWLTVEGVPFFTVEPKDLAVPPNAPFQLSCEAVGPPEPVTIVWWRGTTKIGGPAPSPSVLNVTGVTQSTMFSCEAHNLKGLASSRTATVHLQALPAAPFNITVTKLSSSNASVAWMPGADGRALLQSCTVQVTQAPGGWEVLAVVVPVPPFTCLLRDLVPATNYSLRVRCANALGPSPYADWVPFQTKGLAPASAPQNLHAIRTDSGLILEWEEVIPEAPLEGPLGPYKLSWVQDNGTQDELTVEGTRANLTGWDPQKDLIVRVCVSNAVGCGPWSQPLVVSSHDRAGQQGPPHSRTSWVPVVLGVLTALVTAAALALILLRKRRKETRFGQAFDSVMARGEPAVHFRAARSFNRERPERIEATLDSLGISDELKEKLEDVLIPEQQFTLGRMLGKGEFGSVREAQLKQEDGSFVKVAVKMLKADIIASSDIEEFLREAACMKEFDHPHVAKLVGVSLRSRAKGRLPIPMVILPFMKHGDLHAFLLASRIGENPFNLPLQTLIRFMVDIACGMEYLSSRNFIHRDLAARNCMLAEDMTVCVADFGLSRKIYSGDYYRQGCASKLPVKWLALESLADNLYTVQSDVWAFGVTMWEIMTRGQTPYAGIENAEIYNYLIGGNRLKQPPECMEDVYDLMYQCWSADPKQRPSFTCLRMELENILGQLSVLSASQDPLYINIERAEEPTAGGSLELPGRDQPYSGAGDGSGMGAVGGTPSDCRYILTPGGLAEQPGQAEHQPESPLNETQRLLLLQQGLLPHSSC
T1 sequence (Q8IU85 whole entry): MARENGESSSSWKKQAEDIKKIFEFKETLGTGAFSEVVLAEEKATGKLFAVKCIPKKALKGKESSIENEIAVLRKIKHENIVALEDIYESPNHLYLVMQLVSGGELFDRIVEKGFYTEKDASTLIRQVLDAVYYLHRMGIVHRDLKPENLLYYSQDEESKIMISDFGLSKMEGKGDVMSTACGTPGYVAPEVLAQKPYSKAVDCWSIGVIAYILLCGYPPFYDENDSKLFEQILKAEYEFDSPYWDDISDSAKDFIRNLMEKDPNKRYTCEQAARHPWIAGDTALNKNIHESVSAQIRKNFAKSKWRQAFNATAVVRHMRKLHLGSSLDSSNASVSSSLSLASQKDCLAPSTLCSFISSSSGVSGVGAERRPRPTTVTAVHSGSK

Consider `C1=C(c2nc(-c3cnn(C4CCNCC4)c3)cn3cc(-c4ccccc4)nc23)CCOC1` [YL-939], for which the remaining activity at 10 µM at WNK2(h) came to 76%; on CaMKIδ(h), 90%; at B-Raf(h), 84%; at PKD2(h), 89%; on Rse(h), 98%; at Yes(h), 90%. Moreover, the remaining activity at 10 µM at Aurora-C(h) stood at 101%; at ROCK-I(h) it was 94%; on MOK(h), 88%; on CRIK(h) it was 101%; on TLK1(h) it was 71%; on ULK3(h), 68%. The remaining activity at 10 µM on IGF-1R(h) is 82%; on CaMKIIα(h), 64%; at LOK(h), 95%; on PI3 Kinase (p120)(h) it was 104%; at WNK1(h), 85%; on IR(h) it was 114%. Besides, the remaining activity at 10 µM at MARK3(h) worked out at 80%; on Ret (V804L)(h), 81%; on CDK13/cyclinK(h), 93%; at Abl (H396P) (h) it was 91%.
